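Protocol summary: plate cells (96-well), add compound at 5 concentrations, incubate 48 h, interpolate endpoints linearly. At the GI50, growth is halved.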 Activity calls are given as the source filed them. Rule as the data show it: active = GI50 up to about 1.1 µM and inactive = higher.
Assays:
Assay in all cases: NCI anticancer screen, dose series, 48 h
[1] = system: BT-549
[2] = system: DU-145
[3] = system: MDA-N
[4] = system: NCI/ADR-RES
[5] = system: T47D
[6] = system: PC-3
[7] = system: MCF7
[8] = system: 786-0
[9] = system: RXF 631

Measured: GI50

C=C(C)[C@@H]1CCC2=C[C@H](CC(C)=CC3=CC(C)=C(O3)[C@@H]1OC)OC2=O
inactive: [1] 51.6 µM | [2] > 100 µM | [3] > 100 µM | [4] 90.4 µM | [5] > 100 µM | [6] 83.8 µM | [7] 38.8 µM

COC(=O)C12CC3CC(CC(C(=O)O)(C3)C1)C2
inactive: [8] > 100 µM | [9] > 100 µM

CCOC(=O)c1ccc(N(CCOS(=O)(=O)c2ccc(C)cc2)CCOS(=O)(=O)c2ccc(C)cc2)cc1
inactive: [1] > 100 µM | [3] > 100 µM | [4] > 100 µM | [6] 17 µM | [7] 7.05 µM

COC(=O)c1ccc(/N=N/N(C)COc2ccc([N+](=O)[O-])cc2)cc1
inactive: [4] > 100 µM | [7] > 81.5 µM

O=C(O)Cc1cccc2c1Oc1ccccc1S2
inactive: [8] > 100 µM

Clc1cc2c(c(CSC3=NCN(CC4CC4)CN3)c1)OCOC2
inactive: [8] 19.8 µM | [1] 19.1 µM | [2] 26.1 µM | [3] 16.3 µM | [4] 20.6 µM | [5] 12.9 µM | [6] 23 µM | [7] 20.8 µM

Cc1ccc(NC(=O)CC(=O)n2nc(-c3ccccc3)c(/N=N/c3ccccc3Cl)c2-c2ccccc2)cc1
inactive: [8] 32.6 µM | [9] 96.2 µM

O=NN1C(c2ccccc2)CCCC1c1ccccc1 (stereo not given)
inactive: [4] 51.1 µM | [7] 37.9 µM

COc1ccc(-c2cc(-c3cc(OC)c(OC)c(OC)c3)cc(-c3cc4ccccc4oc3=O)n2)cc1
inactive: [8] 2.16 µM | [1] 8.79 µM | [2] 9.53 µM | [3] 11.6 µM | [4] 7.18 µM | [5] 7.19 µM | [6] 19.6 µM | [7] 16.7 µM

CCOC(=O)CC(=O)CSc1c(-c2ccccc2)c(=O)n(-c2ccccc2)c(=S)n1-c1ccccc1
inactive: [8] > 100 µM | [2] > 100 µM | [3] > 100 µM | [4] > 100 µM | [5] > 100 µM | [6] > 100 µM | [7] > 100 µM

O=C(CC(C(=O)c1cccs1)c1ccc2c(c1)OCO2)c1ccc(Br)cc1 (stereo not given)
inactive: [8] > 100 µM | [2] > 100 µM | [3] > 100 µM | [4] > 100 µM | [5] > 100 µM | [6] > 100 µM | [7] > 100 µM

CC(=O)O[C@]12CCCCCC1C1(O)C(O)CCCC[C@H]12 (stereo not given in full)
inactive: [8] > 100 µM

C[C@]12CCC(=O)C(O)=C1CC[C@@H]1[C@@H]2CC[C@]2(C)C(=O)CC[C@@H]12 [FORMESTANE]
inactive: [8] > 100 µM | [1] > 100 µM | [2] > 100 µM | [3] > 100 µM | [4] > 100 µM | [5] > 100 µM | [9] > 100 µM | [6] > 100 µM | [7] > 100 µM

N#CC1(C#N)C(=O)c2ccncc2C1=O
inactive: [1] > 100 µM | [2] > 100 µM | [3] > 100 µM | [4] 63.7 µM | [5] > 100 µM | [6] > 100 µM | [7] > 100 µM

O=S(=O)(O)c1ccc(/N=N\c2ccc(/N=N/c3ccc(/C=C/c4ccc(/N=[N+](\[O-])c5ccc(/C=C/c6ccc(/N=N/c7ccc(/N=N/c8ccc(S(=O)(=O)O)cc8)c8ccccc78)cc6S(=O)(=O)O)c(S(=O)(=O)O)c5)cc4S(=O)(=O)O)c(S(=O)(=O)O)c3)c3ccccc23)cc1
inactive: [4] > 100 µM | [7] > 100 µM
